In brackets after ≈: the same amount, converted by molar mass.

One assay concerns Bacillus subtilis (ATCC 6633). Put plainly: broth microdilution antibacterial testing. To be noted: Bacillus subtilis, ATCC6633. Type of assay: cell-based. (Broth dilution looks for growth in wells or tubes with falling amounts of substance.)
In general, MIC50 refers to the lowest concentration that inhibits either 50% of growth or 50% of the strains tested, depending on the study. A low value points to greater potency. `CCCCN(CCCC)CCCNc1nc(NC2CCC2)nc(NC23CC4CC(CC(C4)C2)C3)n1` [A2 (Library 5)] gave an MIC50 of 7.9 µM (≈ 3.82 µg/mL).

Take `CCCCN(CCCC)CCCNc1nc(NC2CCCCCCCCCCC2)nc(NC23CC4CC(CC(C4)C2)C3)n1` [A5 (Library 5)]: the MIC50 came out at 15.9 µM (≈ 9.48 µg/mL). Consider `CCCCN(CCCC)CCCNc1nc(NC2CC3CCC2C3)nc(NC23CC4CC(CC(C4)C2)C3)n1` (stereo not drawn) [A6 (Library 5)], for which the MIC50 came to 7.6 µM (≈ 3.98 µg/mL). Compound `CCCCN(CCCC)CCCNc1nc(NC23CC4CC(CC(C4)C2)C3)nc(NC23CC4CC(CC(C4)C2)C3)n1` [A8 (Library 5)] displayed an MIC50 of 39 µM (≈ 22 µg/mL).

Compound `CCCCN(CCCC)CCCNc1nc(NC23CC4CC(CC(C4)C2)C3)nc(N(CCC)CC2CC2)n1` [A10 (Library 5)] had an MIC50 of 5 µM (≈ 2.63 µg/mL).

With `CCN(CC)CCCNc1nc(NCc2ccc3c(c2)OCO3)nc(NC23CC4CC(CC(C4)C2)C3)n1` [C4 (Library 5)], the MIC50 was 3.5 µM (≈ 1.78 µg/mL). This MIC50 and that of the compound before are within 1.5-fold of each other. The same measure, in the same setting: the result for `CCCCN(CCCC)CCCNc1nc(NC2CC2)nc(NC23CC4CC(CC(C4)C2)C3)n1` [Compound A1] reads 16.4 µM (≈ 7.7 µg/mL); that for `CCCCN(CCCC)CCCNc1nc(NC23CC4CC(CC(C4)C2)C3)nc(N(CCCC)CCCC)n1` [Compound A9], 4.4 µM (≈ 2.38 µg/mL); that for `CCN(CC)CCCNc1nc(NCc2ccccc2)nc(NC23CC4CC(CC(C4)C2)C3)n1` [Compound C1], 10.6 µM (≈ 4.91 µg/mL). Compound `CN(C)CCNc1nc(NC2CCCCCC2)nc(NC23CC4CC(CC(C4)C2)C3)n1` [b9 (Library 5)] showed an MIC50 of 7 µM (≈ 2.99 µg/mL). Regarding `CCN(CC)CCNc1nc(NC2CCCCCC2)nc(NC23CC4CC(CC(C4)C2)C3)n1` [c9 (Library 5)], the MIC50 came to 5.6 µM (≈ 2.55 µg/mL).

For `CN(C)CCCNc1nc(NC2CCCCCC2)nc(NC23CC4CC(CC(C4)C2)C3)n1` [d9 (Library 5)], the MIC50 amounted to 5.7 µM (≈ 2.52 µg/mL). With `NCCNc1nc(NC2CCCCCC2)nc(NC23CC4CC(CC(C4)C2)C3)n1` [e9 (Library 5)], the MIC50 was 5.9 µM (≈ 2.36 µg/mL).

Consider `NCCCNc1nc(NC2CCCCCC2)nc(NC23CC4CC(CC(C4)C2)C3)n1` [f9 (Library 5)], for which the MIC50 is 4.7 µM (≈ 1.94 µg/mL). Compound `CN1CCCC1CCNc1nc(NC2CCCCCC2)nc(NC23CC4CC(CC(C4)C2)C3)n1` (stereo not drawn) [g9 (Library 5)] registered an MIC50 of 5.9 µM (≈ 2.76 µg/mL). This MIC50 and that of the compound before are within 1.5-fold of each other.

The same assay, now with this note: library 5; ring size 12; B. subtilis.
Consider `CCCCN(CCCC)CCCNc1nc(NC2CCCCCCCCCCC2)nc(NC23CC4CC(CC(C4)C2)C3)n1` [A5 (Library 5)], for which the “activity decrease comparing to ring size 7 or 8 compounds” value was around 8 fold.

Staying with this assay, now noted: library 5 compound used as control in dye leakage.
Regarding `CN(C)c1nc(NC2CCCCCC2)nc(NC23CC4CC(CC(C4)C2)C3)n1` [h9 (Library 5)], the “antimicrobial activity (in words)” value is reported as “little antimicrobial activity”.

Test system in a further assay: not listed separately
Put plainly: calcein dye leakage. The format is biochemical. To be noted: ampicillin 70 μM. The text has this: FIG. 1 graphically depicts the results of the measurement of the ability of a triazine compound of the invention to induce leakage of calcein, entrapped within the interior of large unilamellar vesicles of model membrane POPG. The extent of leakage of encapsulated calcein was detected by its fluorescence at 515 nm, with 100% leakage calibrated by addition of 0.2% Triton X-100.
The method of preparation of dye-encapsulated vesicles has been reported in detail. Lasch, V.; Weissig, M. Brandl in Liposomes: a Practical Approach Eds.: Taylor, K. M. G.; Craig, D.Q.M. Oxford University Press, Oxford, 2003; pp. 10-12. The results are graphically presented in FIG. 1, which presents the results of calcein leakage induced by 1% Triton, C2 (50 μM), h9 (90 μM) and ampicillin (70 μM). The fraction of leakage was calculated from the fluorescence intensity at 515 nm, with 100% leakage calibrated by addition of 1% Triton X-100.
`CC1(C)S[C@@H]2[C@H](NC(=O)[C@H](N)c3ccccc3)C(=O)N2[C@H]1C(=O)O` [ampicillin]: the “calcein dye leakage (in words)” value is listed as “neither ampicillin nor compound C2 caused dye leakage”.

The record behind these values is patent US8163748B2, “s-Triazine compounds, pharmaceutical compositions and method of using the same” (New York University, priority 2007, dated 2012).
